Reference: paper PMC12471299, “Secondary Metabolites of the Marine Sponge-Derived Fungus Aspergillus subramanianii 1901NT-1.40.2 and Their Antimicrobial and Anticancer Activities” (Marine Drugs, 2025)
In brackets after ≈: the same amount, converted by molar mass. Several values for one entry are separate records, joined by “and”; a condition that tells them apart may be missing. Equal values may be shown once. Read-outs that look alike come from different tables or passages of the source.

Key:
[1] = tested on: malignant glioma U251 cells; parameters: method as in PMID 29642369; details: cited from earlier work
[2] = tested on: MCF-10A breast epithelial cells; experiment: Cell viability assay (MTT); assay type: cell-based, human; details: MCF10A
Outline: (§1)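 Following a 24 h attachment period, rat H9c2 (3 × 10^3/well), HaCaT (1 × 10^4/well), MCF-10A and MDA-MB-231 (each 5 × 10^3/well) cells received compounds at concentrations up to 100 µM. After 24 or 48 h, MTT viability was determined as percent of DMSO-treated wells.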

[3] = tested on: MCF-7 breast cancer cells; experiment: Cell viability assay (MTT); assay type: cell-based, human
[4] = tested on: MDA-MB-231 breast cancer cells; experiment: Cell viability assay (MTT); assay type: cell-based, human
Outline: as §1

[5] = Cell viability assay (MTT); assay type: cell-based, human; details: human, read-out: Cytotoxicity IC50
Outline: as §1

HaCaT keratinocytes = experiment: Cell viability assay (MTT); assay type: cell-based, human
Outline: as §1

[6] = tested on: Escherichia coli VKPM (B-7935); experiment: Biofilm formation assay (MTT); assay type: cell-based; details: E. coli, 18 h
Outline: (§2)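 MIC50 values derive from percent-of-control data: 50% reduction of growth (OD620, 18 h) or of biofilm (MTT, OD570, 18 h). Test compound ≤100 µM; 1% DMSO in PBS served as negative control.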

Candida albicans KMM 455 [7] = experiment: Biofilm formation assay (MTT); assay type: cell-based; details: C. albicans, 18 h
Outline: as §2

[8] = tested on: Staphylococcus aureus ATCC 21027; experiment: Antimicrobial assay, growth inhibition (optical density); assay type: cell-based; details: S. aureus, 18 h; for MIC50: Staphylococcus aureus, ATCC21027, 18 h
Outline: as §2

Candida albicans KMM 455 [9] = experiment: as above; assay type: cell-based; details: C. albicans, 18 h; for MIC50: Candida albicans, KMM455, 18 h
Outline: as §2

S. aureus ATCC 29213 = tested on: S. aureus ATCC 29213; parameters: method as in PMID 29642369; details: cited from earlier work
[10] = tested on: malignant glioma T98G cells; parameters: method as in PMID 29642369; details: cited from earlier work
H9c2 cardiomyocytes = experiment: Cell viability assay (MTT); assay type: cell-based, rat
Outline: as §1

MCF-7 cells = tested on: MCF-7 cells; parameters: method as in PMID 29642369; details: cited from earlier work
[11] = tested on: methicillin-resistant S. aureus (MRSA); parameters: method as in PMID 29642369; details: cited from earlier work
[12] = MCF-7 breast cancer cells, MCF-7, 24 h
[13] = MCF-7 breast cancer cells, MCF-7, 48 h
[14] = MCF-10A breast epithelial cells, MCF10A, 24 h
[15] = MCF-10A breast epithelial cells, MCF10A, 48 h
[16] = MDA-MB-231 breast cancer cells, MDA-MB-231, 24 h
[17] = MDA-MB-231 breast cancer cells, MDA-MB-231, 48 h

COC1=C(c2c[nH]c3ccccc23)C(=O)C(CC=C(C)C)=C(c2c[nH]c3ccccc23)C1=O [Compound 6, kumbicin D]
effect on cells ([1]; U251, at 100 µM): weak effects
cell viability ([2]; 24 h, 1.0 µM): 101.6 ± 3.1 % of control
cell viability ([2]; 24 h, 10.0 µM): 92.4 ± 3.6 % of control
cell viability ([2]; 24 h, 100.0 µM): 23.9 ± 6.2 % of control
cell viability ([2]; 48 h, 1.0 µM): 98.4 ± 4.5 % of control
cell viability ([2]; 48 h, 10.0 µM): 87.4 ± 2.7 % of control
cell viability ([2]; 48 h, 100.0 µM): 13.7 ± 3.2 % of control
cell viability ([3]; MCF-7, 24 h, 1.0 µM): 107.6 ± 6.5 % of control
cell viability ([3]; MCF-7, 24 h, 10.0 µM): 77.7 ± 7.5 % of control
cell viability ([3]; MCF-7, 24 h, 100.0 µM): 29.9 ± 0.8 % of control
cell viability ([3]; MCF-7, 48 h, 1.0 µM): 84.6 ± 9.4 % of control
cell viability ([3]; MCF-7, 48 h, 10.0 µM): 76.8 ± 3.8 % of control
cell viability ([3]; MCF-7, 48 h, 100.0 µM): 12.1 ± 2.7 % of control
cell viability ([4]; MDA-MB-231, 24 h, 1.0 µM): 93.6 ± 4.8 % of control
cell viability ([4]; MDA-MB-231, 24 h, 10.0 µM): 84.5 ± 6.7 % of control
cell viability ([4]; MDA-MB-231, 24 h, 100.0 µM): 32.7 ± 5.2 % of control
cell viability ([4]; MDA-MB-231, 48 h, 1.0 µM): 100.6 ± 2.2 % of control
cell viability ([4]; MDA-MB-231, 48 h, 10.0 µM): 90.8 ± 1.2 % of control
cell viability ([4]; MDA-MB-231, 48 h, 100.0 µM): 14.7 ± 0.6 % of control
IC50 at 24 h ([5]; HaCaT keratinocytes, 24 h): > 100 µM
IC50 at 48 h ([5]; HaCaT keratinocytes, 48 h): 49.4 ± 1.2 µM
IC50 at 24 h [5, 12]: 62.2 ± 2.2 µM
IC50 at 48 h [5, 13]: 47.3 ± 1.7 µM
IC50 at 24 h [5, 14]: 65.7 ± 1.9 µM
IC50 at 48 h [5, 15]: 55.6 ± 2.3 µM
IC50 at 24 h [5, 16]: 74.4 ± 0.6 µM
IC50 at 48 h [5, 17]: 58.2 ± 2 µM
cell viability (HaCaT keratinocytes; 24 h, 1.0 µM): 97.2 ± 5.7 % of control
cell viability (HaCaT keratinocytes; 24 h, 10.0 µM): 98.6 ± 3.5 % of control
cell viability (HaCaT keratinocytes; 24 h, 100.0 µM): 21.5 ± 3.3 % of control
cell viability (HaCaT keratinocytes; 48 h, 1.0 µM): 100.5 ± 3.3 % of control
cell viability (HaCaT keratinocytes; 48 h, 10.0 µM): 80.0 ± 0.1 % of control
cell viability (HaCaT keratinocytes; 48 h, 100.0 µM): 11.6 ± 3.5 % of control
Biofilm formation, MIC50 [6]: 10.34 ± 0.98 µM
Biofilm formation, MIC50 (Candida albicans KMM 455 [7]): 8.36 ± 0.95 µM
Growth inhibition, MIC50 [8]: 9.38 ± 0.77 µM
MIC50 [8]: 7 to 11 µM (≈ 3.06 to 4.8 µg/mL)
Growth inhibition, MIC50 (Candida albicans KMM 455 [9]): 10.44 ± 1.07 µM
MIC50 (Candida albicans KMM 455 [9]): 7 to 10 µM (≈ 3.06 to 4.37 µg/mL)
antibacterial activity (S. aureus ATCC 29213): not active
effect on cells ([10]; T98G, at 100 µM): weak effects
cell viability (H9c2 cardiomyocytes; H9c2, 24 h, 1.0 µM): 104.0 ± 12.9 % of control
cell viability (H9c2 cardiomyocytes; H9c2, 24 h, 10.0 µM): 92.9 ± 6.1 % of control
cell viability (H9c2 cardiomyocytes; H9c2, 24 h, 100.0 µM): 30.9 ± 2.9 % of control
cell viability (H9c2 cardiomyocytes; H9c2, 48 h, 1.0 µM): 99.7 ± 3.7 % of control
cell viability (H9c2 cardiomyocytes; H9c2, 48 h, 10.0 µM): 88.6 ± 2.3 % of control
cell viability (H9c2 cardiomyocytes; H9c2, 48 h, 100.0 µM): 21.6 ± 2.2 % of control
effect on cells (MCF-7 cells; MCF-7, at 100 µM): weak effects
antibacterial activity ([11]; MRSA): not active

COc1c(OC)c(-c2c[nH]c3ccc(O)cc23)c(OC)c(OC)c1-c1c[nH]c2ccccc12 [Compound 8, petromurin C]
effectiveness ([1]; U251 cells): not effective
cell viability ([2]; 24 h, 1.0 µM): 91.9 ± 9.5 % of control
cell viability ([2]; 24 h, 10.0 µM): 81.4 ± 1.0 % of control
cell viability ([2]; 24 h, 100.0 µM): 52.0 ± 4.0 % of control
cell viability ([2]; 48 h, 1.0 µM): 95.3 ± 3.4 % of control
cell viability ([2]; 48 h, 10.0 µM): 92.1 ± 2.1 % of control
cell viability ([2]; 48 h, 100.0 µM): 45.7 ± 6.6 % of control
cell viability ([3]; MCF-7, 24 h, 1.0 µM): 105.4 ± 5.9 % of control
cell viability ([3]; MCF-7, 24 h, 10.0 µM): 92.8 ± 3.0 % of control
cell viability ([3]; MCF-7, 24 h, 100.0 µM): 53.7 ± 6.8 % of control
cell viability ([3]; MCF-7, 48 h, 1.0 µM): 77.7 ± 3.7 % of control
cell viability ([3]; MCF-7, 48 h, 10.0 µM): 70.6 ± 8.5 % of control
cell viability ([3]; MCF-7, 48 h, 100.0 µM): 28.6 ± 4.3 % of control
cell viability ([4]; MDA-MB-231, 24 h, 1.0 µM): 89.4 ± 2.4 % of control
cell viability ([4]; MDA-MB-231, 24 h, 10.0 µM): 103.6 ± 2.2 % of control
cell viability ([4]; MDA-MB-231, 24 h, 100.0 µM): 63.7 ±4.8 % of control
cell viability ([4]; MDA-MB-231, 48 h, 1.0 µM): 102.9 ± 0.5 % of control
cell viability ([4]; MDA-MB-231, 48 h, 10.0 µM): 89.5 ± 3.1 % of control
cell viability ([4]; MDA-MB-231, 48 h, 100.0 µM): 38.6 ± 1.7 % of control
IC50 at 24 h ([5]; HaCaT keratinocytes, 24 h): > 100 µM
IC50 at 48 h ([5]; HaCaT keratinocytes, 48 h): 80.5 ± 1.8 µM
IC50 at 24 h [5, 12]: > 100 µM
IC50 at 48 h [5, 13]: 61.5 ± 1.2 µM
IC50 at 24 h [5, 14]: ≥ 100 µM
IC50 at 48 h [5, 15]: 91 ± 4.1 µM
IC50 at 24 h [5, 16]: > 100 µM
IC50 at 48 h [5, 17]: 79.9 ± 1.2 µM
cell viability (HaCaT keratinocytes; 24 h, 1.0 µM): 102.7 ± 7.7 % of control
cell viability (HaCaT keratinocytes; 24 h, 10.0 µM): 93.1 ± 6.9 % of control
cell viability (HaCaT keratinocytes; 24 h, 100.0 µM): 64.3 ± 1.9 % of control
cell viability (HaCaT keratinocytes; 48 h, 1.0 µM): 95.8 ± 1.9 % of control
cell viability (HaCaT keratinocytes; 48 h, 10.0 µM): 97.7 ± 1.4 % of control
cell viability (HaCaT keratinocytes; 48 h, 100.0 µM): 36.8 ± 7.0 % of control
Biofilm formation, MIC50 [6]: 83.01 µM and 83.01 ± 6.42 µM
Biofilm formation, MIC50 (Candida albicans KMM 455 [7]): 24.12 µM and 24.12 ± 3.07 µM
Growth inhibition, MIC50 [8]: 26.74 ± 1.98 µM
MIC50 [8]: 26 to 52 µM (≈ 11.6 to 23.1 µg/mL)
Growth inhibition, MIC50 (Candida albicans KMM 455 [9]): 34.14 ± 2.1 µM
MIC50 (Candida albicans KMM 455 [9]): 26 to 52 µM (≈ 11.6 to 23.1 µg/mL)
antibacterial activity (S. aureus ATCC 29213): did not inhibit the growth
effectiveness ([10]; T98G cells): not effective
cell viability (H9c2 cardiomyocytes; H9c2, 24 h, 1.0 µM): 100.9 ± 1.7 % of control
cell viability (H9c2 cardiomyocytes; H9c2, 24 h, 10.0 µM): 95.9 ± 2.3 % of control
cell viability (H9c2 cardiomyocytes; H9c2, 24 h, 100.0 µM): 57.4 ± 8.5 % of control
cell viability (H9c2 cardiomyocytes; H9c2, 48 h, 1.0 µM): 101.6 ± 2.2 % of control
cell viability (H9c2 cardiomyocytes; H9c2, 48 h, 10.0 µM): 79.8 ± 4.6 % of control
cell viability (H9c2 cardiomyocytes; H9c2, 48 h, 100.0 µM): 55.8 ± 5.5 % of control
IC50 (MCF-7 cells; MCF-7 cells, read-out: IC50, cell viability): 94.8 µM
effect with oxacillin ([11]; MRSA S. aureus 66/1, with oxacillin): synergistic effect
